Where two headings read alike, the source gives them in different places.
Columns and labels:
NS3 genotype 1b protease = target: T1, NS3 genotype 1b protease (Hepatitis C virus genotype 1b, UniProt Q9WMX2, E1202G); experiment: Ki determination, NS3 protease genotype 1b (fluorogenic depsipeptide substrate); assay type: biochemical
T1 construct: Purified NS3 protease domain (amino acids 1-181) of the genotype 1b and 3a virus were generated as above; K3 hexahistidine tag (N); rTEV protease cleavage site (N); made in house; host or cells: E. coli BL21AI, pET28 vector p28-N6H-Tev-NS3(181)1b
From the text: The coding sequence of the genotype 1b (con-1 strain) HCV NS3 protease domain was PCR amplified from a plasmid encoding the I389luc-ubi-neo/NS3-3′/ET replicon (Reblikon, Mainz, Germany). The 5′-PCR primer was designed to encode an N-terminal K3 hexahistidine tag and to insert an in-frame recombinant Tobacco Etch virus (rTEV) protease cleavage site into the NS3 coding sequence. The resulting DNA fragment was cloned into the pET28 protein expression vector (Invitrogen, Carlsbad, Calif.) yielding the p28-N6H-Tev-NS3(181)1b.
BL21AI bacteria (Invitrogen, Carlsbad, Calif.) were transformed with genotype 1b or 3 NS3 expression vectors and used to inoculate a 20 L fermentation vessel (Sartorius BBI System Inc., Bethlehem, Pa.), containing 18 L of fresh 2YT medium supplemented with 50 μg/mL kanamycin. When cell densities reached an OD600 of 1, the temperature of the cultures was reduced from 37° C. to 28° C. and induction was immediately initiated by the addition of 30 μM ZnSO4, 14 mM L-arabinose and 1 mM Isopropyl β-D-thiogalactoside (IPTG) final concentrations. Cells were harvested by centrifugation four hours post-induction and were stored as frozen pellets at −80° C. prior to NS3 protein purification.
Cell pellets were thawed and resuspended at 10 mL/g cells in lysis buffer containing 50 mM tris pH 7.6, 300 mM NaCl, 0.1% 3-[(3-cholamidopropyl)dimethylammonio]-1-propanesulfonate (CHAPS), 5% glycerol, and 2 mM β-mercaptoethanol. Cell suspensions were then sonicated, filtered through cheesecloth, and passed three times through a microfluidizer at 18,000 pounds/in^2. The resulting lysates were centrifuged at 15500 rpm for 45 minutes and supernatants were loaded onto a HisTrap HP column (GE Lifesciences) pre-equilibrated with five volumes of Ni buffer A (50 mM tris pH 7.6, 300 mM NaCl, 0.1% CHAPS, 5% glycerol, 2 mM β-mercaptoethanol, 50 mM imidazole-HCl). Proteins were eluted with a 0-100% gradient of Ni buffer A plus 500 mM imidazole-HCl and fractions were collected and pooled. The HisTrap pool was diluted 1:10 with SP-A buffer (50 mM tris pH 7.0, 10% glycerol, 2 mM dithiothreitol (DTT)) and loaded onto a HiTrap SP-HP column (GE Lifesciences) equilibrated with SP-A buffer. NS3 protease was eluted with a 0-100% SP-B buffer (SP-A buffer plus 1 M NaCl) gradient. Concentrated pools of NS3-containing SP fractions were aliquoted, snap frozen in liquid nitrogen and stored at −80° C.
Purified NS3 protease domain (amino acids 1-181) of the genotype 1b and 3a virus were generated as above.
Reactions were run at room temperature in buffer consisting of 50 mM HEPES, 40% glycerol, 0.05% Triton X-100, 10 mM DTT, and 10% DMSO. The final assay solutions contained 50 pM NS3 genotype 1b protease or 200 pM genotype 3a protease, 20 μM NS4A peptide, and 4 μM substrate (genotype 1 b) or 2 μM substrate (genotype 3a). Inhibitor concentrations varied from 100 nM to 5 pM in 3-fold dilutions, and no-inhibitor controls were included.
Compound dilutions were made in DMSO at 20× final concentration. Reaction mixtures were prepared in 96-well assay plates. A solution of enzyme and NS4A peptide in assay buffer (25 μL volume with both reagents at 4× final concentration) was mixed with 45 μL assay buffer and 5 μL of either inhibitor or DMSO, and pre-incubated at room temperature for 1 hour. The reaction was started by addition of 25 μL substrate solution at 4× final concentration. Plates were mixed vigorously for 5-10 seconds and reactions were allowed to proceed for 90 minutes. fluorescence was measured every 30 s between 90 and 120 minutes reaction time using a Tecan InfiniTe M1000 or PerkinElmer Envision multimode plate reader with an excitation wavelength of 340 nm and an emission wavelength of 490 nm.
To determine the K, rates were plotted as a function of inhibitor concentration, and the data were fit with equation 1 (Morrison, J. F., Biochimica et Biophysica Acta 1969, 185, 269-286) to calculate Ki^app using GraphPad Prism 5.

NS3 genotype 3a protease = target: T2, NS3 genotype 3a protease (UniProt Q81258); experiment: Ki determination, NS3 protease genotype 3a (fluorogenic depsipeptide substrate); assay type: biochemical, hepatitis C virus
T2 construct: Purified NS3 protease domain (amino acids 1-181) of the genotype 1b and 3a virus were generated as above; fused on or other part: N-terminal hexahistidine tag and rTEV protease cleavage site (vector p28-N6H-Tev-NS3(181)3)
T2 sequence (Q81258 1033-1663): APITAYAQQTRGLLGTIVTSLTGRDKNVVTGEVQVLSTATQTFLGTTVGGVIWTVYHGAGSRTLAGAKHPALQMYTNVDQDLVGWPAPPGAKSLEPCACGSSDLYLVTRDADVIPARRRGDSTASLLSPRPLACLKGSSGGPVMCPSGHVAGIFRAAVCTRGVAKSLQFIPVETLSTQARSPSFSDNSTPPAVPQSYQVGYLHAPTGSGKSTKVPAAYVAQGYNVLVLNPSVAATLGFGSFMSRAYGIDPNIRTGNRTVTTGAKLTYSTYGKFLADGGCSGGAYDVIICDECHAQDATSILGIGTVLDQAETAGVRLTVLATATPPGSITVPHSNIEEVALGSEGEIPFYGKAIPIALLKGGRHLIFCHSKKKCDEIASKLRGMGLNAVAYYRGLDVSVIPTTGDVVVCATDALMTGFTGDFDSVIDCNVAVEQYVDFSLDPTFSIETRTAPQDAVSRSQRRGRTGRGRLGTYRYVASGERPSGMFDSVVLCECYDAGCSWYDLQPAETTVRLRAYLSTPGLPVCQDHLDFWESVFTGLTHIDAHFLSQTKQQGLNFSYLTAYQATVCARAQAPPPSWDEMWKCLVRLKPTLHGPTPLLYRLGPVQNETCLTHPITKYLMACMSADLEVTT
In short: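 Refolded His-tagged NS3 protease domain (aa 1-181, genotype 3a) at 200 pM with 20 μM NS4A peptide was pre-incubated 1 h at RT with inhibitor (100 nM–5 pM, 3-fold), then 2 μM FRET depsipeptide substrate was added in HEPES/40% glycerol/10% DMSO buffer. Steady-state rates over 90-120 min (ex 340/em 490 nm) versus inhibitor concentration gave Ki.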

[1] = 200 pM enzyme, 20 μM NS4A peptide, 2 μM substrate, read-out: Ki 3A
[2] = read-out: Ki 3A, 200 pM enzyme, 20 μM NS4A peptide, 2 μM substrate

Row | Structure (SMILES) | Ki (NS3 genotype 3a protease; [1]) | further results
1 | CCOc1ccc2nc3c(nc2c1)O[C@H]1CN(C(=O)[C@H](C(C)(C)C)NC(=O)O[C@@H]2C[C@H]2CCCCC3)[C@H](C(=O)N[C@]2(C(=O)NS(=O)(=O)C3(C)CC3)C[C@H]2C(F)F)[C@@H]1CC [Example 69, (1aR,5S,8S,9S,10R,22aR)-5-tert-butyl-N-[(1R,2R)-2-(difluoromethyl)-1-{[(1-methylcyclopropyl)sulfonyl]carbamoyl}cyclopropyl]-14-ethoxy-9-ethyl-3,6-dioxo-1,1a,3,4,5,6,9,10,18,19,20,21,22,22a-tetradecahydro-8H-7,10-methanocyclopropa[18,19][1,10,3,6]dioxadiazacyclononadecino[11,12-b]quinoxaline-8-carboxamide] |  | Ki (NS3 genotype 1b protease): 70 pM
2 | CC[C@@H]1[C@@H]2CN(C(=O)[C@H](C(C)(C)C)NC(=O)O[C@@H]3C[C@H]3CCCCCc3nc4ccc(OC)cc4nc3O2)[C@@H]1C(=O)N[C@]1(C(=O)NS(=O)(=O)C2(C)CC2)C[C@H]1CC(F)F [Example 67, (1aR,5S,8S,9S,10R,22aR)-5-tert-butyl-N-[(1R,2S)-2-(2,2-difluoroethyl)-1-{[(1-methylcyclopropyl)sulfonyl]carbamoyl}cyclopropyl]-9-ethyl-14-methoxy-3,6-dioxo-1,1a,3,4,5,6,9,10,18,19,20,21,22,22a-tetradecahydro-8H-7,10-methanocyclopropa[18,19][1,10,3,6]dioxadiazacyclononadecino[11,12-b]quinoxaline-8-carboxamide] | 320 pM | 
3 | COc1ccc2nc3c(nc2c1)O[C@H]1CN(C(=O)[C@H](C(C)(C)C)NC(=O)O[C@@H]2C[C@H]2CCCCC3)[C@H](C(=O)N[C@]2(C(=O)NS(=O)(=O)C3CC3)C[C@H]2CCF)[C@@H]1C [Example 22, (1aR,5S,8S,9S,10R,22aR)-5-tert-butyl-N-[(R1R,2S)-1-[(cyclopropylsulfonyl)carbamoyl]-2-(2-fluoroethyl)cyclopropyl]-14-methoxy-9-methyl-3,6-dioxo-1,1a,3,4,5,6,9,10,18,19,20,21,22,22a-tetradecahydro-8H-7,10-methanocyclopropa[18,19][1,10,3,6]dioxadiazacyclononadecino[11,12-b]quinoxaline-8-carboxamide] |  | Ki (NS3 genotype 3a protease; [2]): 1300 pM
4 | CC[C@@H]1[C@@H]2CN(C(=O)[C@H](C(C)(C)C)NC(=O)O[C@@H]3[C@H]4CC[C@H](C4)[C@H]3CCCCCc3nc4ccc(OC)cc4nc3O2)[C@@H]1C(=O)N[C@]1(C(=O)NS(=O)(=O)C2(C)CC2)C[C@H]1C(F)F [Example 37, (1R,4S,4aR,8S,11S,12S,13R,25aR)-8-tert-butyl-N-[(1R,2R)-2-(difluoromethyl)-1-{[(1-methylcyclopropyl)sulfonyl]carbamoyl}cyclopropyl]-12-ethyl-17-methoxy-6,9-dioxo-2,3,4,4a,6,7,8,9,12,13,21,22,23,24,25,25a-hexadecahydro-1H,11H-1,4:10,13-dimethanoquinoxalino[2,3-k][1,10,3,6]benzodioxadiazacyclononadecine-11-carboxamide] | 190 pM | 
5 | CC[C@@H]1[C@@H]2CN(C(=O)[C@H](C(C)(C)C)NC(=O)O[C@@]3(C)C[C@@H]3CCCCCc3nc4ccc(OC)cc4nc3O2)[C@@H]1C(=O)N[C@]1(C(=O)NS(=O)(=O)C2(C)CC2)C[C@H]1C(F)F [Example 8, (1aS,5S,8S,9S,10R,22aS)-5-tert-butyl-N-[(1R,2R)-2-(difluoromethyl)-1-{[(1-methylcyclopropyl)sulfonyl]carbamoyl}cyclopropyl]-9-ethyl-14-methoxy-1a-methyl-3,6-dioxo-1,1a,3,4,5,6,9,10,18,19,20,21,22,22a-tetradecahydro-8H-7,10-methanocyclopropa[18,19][1,10,3,6]dioxadiazacyclononadecino[11,12-b]quinoxaline-8-carboxamide] | 420 pM | 
6 | CC[C@@H]1[C@@H]2CN(C(=O)[C@H](C(C)(C)C)NC(=O)O[C@@H]3C[C@H]3CCCCCc3nc4ccc(OC)cc4nc3O2)[C@@H]1C(=O)N[C@]1(C(=O)NS(=O)(=O)C2(C)CC2)C[C@H]1CC [Example 4, (1aR,5S,8S,9S,10R,22aR)-5-tert-butyl-9-ethyl-N-[(1R,2R)-2-ethyl-1-{[(1-methylcyclopropyl)sulfonyl]carbamoyl}cyclopropyl]-14-methoxy-3,6-dioxo-1,1a,3,4,5,6,9,10,18,19,20,21,22,22a-tetradecahydro-8H-7,10-methanocyclopropa[18,19][1,10,3,6]dioxadiazacyclononadecino[11,12-b]quinoxaline-8-carboxamide] | 560 pM | 
7 | CC[C@@H]1[C@@H]2CN(C(=O)[C@H](C3CCCC3)NC(=O)O[C@@H]3C[C@H]3CCCCCc3nc4ccc(OC)cc4nc3O2)[C@@H]1C(=O)N[C@]1(C(=O)NS(=O)(=O)C2CC2)C[C@H]1C(F)F [Example 15, (1aR,5S,8S,9S,10R,22aR)-5-cyclopentyl-N-[(1R,2R)-1-[(cyclopropylsulfonyl)carbamoyl]-2-(difluoromethyl)cyclopropyl]-9-ethyl-14-methoxy-3,6-dioxo-1,1a,3,4,5,6,9,10,18,19,20,21,22,22a-tetradecahydro-8H-7,10-methanocyclopropa[18,19][1,10,3,6]dioxadiazacyclononadecino[11,12-b]quinoxaline-8-carboxamide] |  | Ki (NS3 genotype 3a protease; [2]): 300 pM

— patent publication US20150175655A1 (priority 2012, published 2015)
